In ChEMBL document CHEMBL1201862, “PubChem BioAssay data set” (2004):
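Five concentrations, 48 hours, 96-well plates. GI50 = concentration required for 50% inhibition of growth.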 Activity calls are given as the source filed them. Rule as the data show it: active = GI50 up to about 1.1 µM and inactive = higher.

Key:
Experiment in all cases: DTP human tumour cell line panel, 48 h
LOX IMVI = system: LOX IMVI
EKVX = system: EKVX
SF-295 = system: SF-295
OVCAR-3 = system: OVCAR-3
HOP-62 = system: HOP-62
NCI-H460 = system: NCI-H460
NCI-H522 = system: NCI-H522
HL-60 = system: HL-60
HOP-92 = system: HOP-92
SW-620 = system: SW-620
UACC-257 = system: UACC-257
NCI-H23 = system: NCI-H23
M14 = system: M14
U-251 = system: U-251
CAKI-1 = system: CAKI-1
SN12C = system: SN12C
SNB-19 = system: SNB-19

Measured: GI50

C/C(CC(=O)Nc1ccc(C)c(C)c1)=N\NC(N)=O
inactive: LOX IMVI > 100 µM | EKVX > 100 µM | SF-295 > 100 µM | OVCAR-3 > 100 µM | HOP-62 > 100 µM | NCI-H460 > 100 µM | NCI-H522 82 µM | HL-60 > 100 µM | HOP-92 > 100 µM | SW-620 > 100 µM | UACC-257 > 100 µM | NCI-H23 > 100 µM | M14 > 100 µM | U-251 > 100 µM

CCOC(=O)C1=C(C)N(NC(=O)Nc2ccccc2)C2(N)N(NC(=O)Nc3ccccc3)C(C)=C(C(=O)OCC)C12C#N (stereo not given)
inactive: LOX IMVI 18.9 µM | CAKI-1 19.2 µM | SN12C 17.6 µM | OVCAR-3 17.5 µM | NCI-H460 17.8 µM | NCI-H522 18.9 µM | HOP-92 20.2 µM | SW-620 18.9 µM | UACC-257 23.7 µM | NCI-H23 22.3 µM | M14 19.9 µM | U-251 18.4 µM

Cn1c2cc([N+](=O)[O-])ccc2c(=O)c2c(O)cc3c(c21)C=CC(C)(C)O3
inactive: SNB-19 31.6 µM | LOX IMVI > 100 µM | EKVX 22 µM | CAKI-1 60.5 µM | SN12C > 100 µM | SF-295 16.9 µM | NCI-H460 > 100 µM | NCI-H522 46.5 µM | HL-60 > 100 µM | SW-620 > 100 µM | UACC-257 > 100 µM | NCI-H23 63.4 µM | M14 > 100 µM | U-251 > 100 µM

CC1=NN(C(=O)c2ccncc2)C(=O)C1/N=N/c1ccc(F)cc1 (stereo not given)
inactive: SNB-19 > 100 µM | LOX IMVI > 100 µM | EKVX 20 µM | CAKI-1 > 100 µM | SN12C > 100 µM | SF-295 > 100 µM | OVCAR-3 > 100 µM | NCI-H460 > 100 µM | NCI-H522 > 100 µM | HL-60 > 100 µM | HOP-92 51.6 µM | SW-620 > 100 µM | UACC-257 > 100 µM | NCI-H23 > 100 µM | M14 > 100 µM

Cc1ccc(/C=C/C(=O)c2sc(-c3cccnc3)nc2C)cc1
inactive: LOX IMVI > 100 µM | EKVX > 100 µM | CAKI-1 > 100 µM | SN12C > 100 µM | SF-295 > 100 µM | OVCAR-3 > 100 µM | HOP-62 > 100 µM | NCI-H460 > 100 µM | NCI-H522 > 100 µM | HL-60 > 100 µM | HOP-92 > 100 µM | SW-620 > 100 µM | UACC-257 > 100 µM | NCI-H23 > 100 µM | U-251 > 100 µM
